Source: patent publication US7863281B2, “Bicyclic heterocycles, pharmaceutical compositions containing these compounds, their use and processes for the preparation thereof” (Boehringer Ingelheim Pharma GmbH & Co. KG, priority 2002, dated 2011)

Molecular target: T1, human EGF-receptor kinase (Homo sapiens, UniProt P00533)
T1 construct: GST; made in house; host or cells: Sf9 insect cells (Baculovirus expression system)
Test: Inhibition of human EGF-receptor kinase (ELISA, pEY substrate)
Format: biochemical
Conditions: cytoplasmic tyrosine kinase domain (Met664-Ala1186) as GST fusion protein; poly(EY)/bio-pEY substrate; 30 minutes at ambient temperature
Method: The inhibition of human EGF-receptor kinase was determined using the cytoplasmic tyrosine kinase domain (methionine 664 to alanine 1186 based on the sequence published in Nature 309 (1984), 418). For this the protein was expressed in Sf9 insect cells as GST fusion protein using the Baculovirus expression system.
The enzyme activity was measured in the presence or absence of the test compounds in serial dilutions. The polymer pEY (4:1) obtained from SIGMA was used as the substrate. Biotinylated pEY (bio-pEY) was added as the tracer substrate. 100 μl of reaction solution contained 10 μl of the inhibitor in 50% DMSO, 20 μl of the substrate solution (200 mM HEPES pH 7.4, 50 mM magnesium acetate, 2.5 mg/ml poly(EY), 5 μg/ml bio-pEY) and 20 μl of enzyme preparation. The enzyme reaction was started by the addition of 50 μl of a 100 μM ATP solution in 10 mM of magnesium chloride. The dilution of the enzyme preparation was adjusted so that the incorporation of phosphate in the bio-pEY was linear in terms of time and quantity of enzyme. The enzyme preparation was diluted in 20 mM HEPES pH 7.4, 1 mM EDTA, 130 mM common salt, 0.05% Triton X-100, 1 mM DTT and 10% glycerol.
The enzyme assays were carried out at ambient temperature over a period of 30 minutes and ended by the addition of 50 μl of a stopping solution (250 mM EDTA in 20 mM HEPES pH 7.4). 100 μl were placed on a streptavidin-coated microtitre plate and incubated for 60 minutes at ambient temperature. Then the plate was washed with 200 μl of a wash solution (50 mM Tris, 0.05% Tween 20). After the addition of 100 μl of an HRPO-labelled anti-PY antibody (PY20H Anti-PTyr:HRP made by Transduction Laboratories, 250 ng/ml) the preparation was incubated for 60 minutes. Then the microtitre plate was washed three times with 200 μl of wash solution. The samples were then combined with 100 μl of a TMB-peroxidase solution (A:B=1:1, Kirkegaard Perry Laboratories). After 10 minutes the reaction was stopped. The extinction was measured at OD450nm with an ELISA reader. All the results were measured three times. […]

T1 sequence (P00533 688-1210): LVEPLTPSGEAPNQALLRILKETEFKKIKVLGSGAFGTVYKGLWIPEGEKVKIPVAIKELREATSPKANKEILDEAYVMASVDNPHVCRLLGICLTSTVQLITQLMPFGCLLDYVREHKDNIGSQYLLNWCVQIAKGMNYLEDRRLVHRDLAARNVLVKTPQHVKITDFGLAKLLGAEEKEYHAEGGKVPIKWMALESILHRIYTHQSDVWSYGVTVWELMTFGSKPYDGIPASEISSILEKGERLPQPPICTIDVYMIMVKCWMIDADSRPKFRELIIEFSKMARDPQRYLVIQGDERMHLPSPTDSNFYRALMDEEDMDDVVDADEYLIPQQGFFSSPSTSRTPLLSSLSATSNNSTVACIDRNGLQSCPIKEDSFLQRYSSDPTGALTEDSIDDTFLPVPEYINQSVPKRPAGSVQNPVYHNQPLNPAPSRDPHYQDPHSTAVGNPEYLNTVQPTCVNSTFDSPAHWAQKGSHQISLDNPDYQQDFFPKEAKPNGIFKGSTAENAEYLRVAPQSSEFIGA

Structure (SMILES) | IC50 [nM]
O=C(/C=C/CN1C[C@H]2C[C@@H]1CO2)Nc1cc2c(Nc3ccc(F)c(Cl)c3)ncnc2cc1O[C@H]1CCOC1 [Example 2(2), 4-[(3-chloro-4-fluoro-phenyl)amino]-6-{[4-((1R,4R)-2-oxa-5-aza-bicyclo[2.2.1]hept-5-yl)-1-oxo-2-buten-1-yl]amino}-7-[(S)-(tetrahydrofuran-3-yl)oxy]-quinazoline] | 0.5
O=C(/C=C/CN1CC2CCC(C1)O2)Nc1cc2c(Nc3ccc(F)c(Cl)c3)ncnc2cc1O[C@H]1CCOC1 [Example 2(3), 4-[(3-chloro-4-fluoro-phenyl)amino]-6-{[4-(8-oxa-3-aza-bicyclo[3.2.1]oct-3-yl)-1-oxo-2-buten-1-yl]amino}-7-[(S)-(tetrahydrofuran-3-yl)oxy]-quinazoline] | 2
O=C(/C=C/CN1C[C@@H]2C[C@H]1CO2)Nc1cc2c(Nc3ccc(F)c(Cl)c3)ncnc2cc1OCC1CC1 [Example 1, 4-[(3-chloro-4-fluoro-phenyl)amino]-6-{[4-((1S,4S)-2-oxa-5-aza-bicyclo[2.2.1]hept-5-yl)-1-oxo-2-buten-1-yl]amino}-7-cyclopropylmethoxy-quinazoline] | 1.5
